How the values were obtained:
opioid (μ) receptor = opioid (μ) receptor (Homo sapiens, UniProt P35372); assay: Opioid (μ) receptor binding
Description: Another assay useful in the present invention concerns determining the ability of a ligand to bind to a biological receptor utilizing a technique well known in the art referred to as a radioligand binding assay. This assay accurately determines the specific binding of a radioligand to a targeted receptor through the delineation of its total and nonspecific binding components. Total binding is defined as the amount of radioligand that remains following the rapid separation of the radioligand bound in a receptor preparation (cell homogenates or recombinate receptors) from that which is unbound. The nonspecific binding component is defined as the amount of radioligand that remains following separation of the reaction mixture consisting of receptor, radioligand and an excess of unlabeled ligand. Under this condition, the only radioligand that remains represents that which is bound to components other that receptor. The specific radioligand bound is determined by subtracting the nonspecific from total radioactivity bound. For a specific example of radioligand binding assay for μ-opioid receptor, see Wang, J. B. et al. FEBS Letters 1994, 338, 217.
(§1) The opioid (μ) receptor binding capabilities of compounds described herein were determined according to the procedures outlined by Wang et al. (FEBS Letters 1994, 338, 217). The sodium channel receptor binding capabilities of compounds described herein were determined according to the procedures outlined by Catterall et al. (J. Biol. Chem. 1981, 256, 8922). The calcium channel receptor binding capabilities of compounds described herein were determined according to the procedures outlined by Gould et al. (Proc. Natl. Acad. Sci. USA 1982, 79, 3656), Ehlert et al. (Life Sci. 1982, 30, 2191), Reynolds et al. (J. Pharmacol. Exp. Ther. 1986, 237, 731), Moresco et al. (Neurobiology of Aging 1990, II, 433) and Schoemaker et al. (Eur. J. Pharmacol. 1985, III, 273). The potassium channel receptor binding capabilities of compounds described herein were determined according to the procedures outlined by Taylor et al. (J. Biol. Chem. 1984, 259, 13957), Rehm et al. (Proc. Natl. Acad. Sci. USA 1988, 85, 4919), Vasquez et al. (J. Biol. Chem. 1990, 265, 15564) and Mourre et al. (Brain Research 1986, 382, 239).

sodium channel (site 2) = assay: Sodium channel receptor binding (site 2); conditions: sodium channel site 2 binding; read-out: Na (site 2) (IC50)
Experimental: as §1

calcium channel (type N) = calcium channel (type N) (Rattus norvegicus, UniProt Q02294); assay: Calcium channel receptor binding, type N; conditions: read-out: Ca (type N) (IC50)
Experimental: as §1

[1] = target: potassium channel [KA], [KV] or [SKCa]; assay: Potassium channel receptor binding; conditions: read-out: K** (IC50)
Experimental: as §1

Sequence of calcium channel (type N) (Q02294 whole entry): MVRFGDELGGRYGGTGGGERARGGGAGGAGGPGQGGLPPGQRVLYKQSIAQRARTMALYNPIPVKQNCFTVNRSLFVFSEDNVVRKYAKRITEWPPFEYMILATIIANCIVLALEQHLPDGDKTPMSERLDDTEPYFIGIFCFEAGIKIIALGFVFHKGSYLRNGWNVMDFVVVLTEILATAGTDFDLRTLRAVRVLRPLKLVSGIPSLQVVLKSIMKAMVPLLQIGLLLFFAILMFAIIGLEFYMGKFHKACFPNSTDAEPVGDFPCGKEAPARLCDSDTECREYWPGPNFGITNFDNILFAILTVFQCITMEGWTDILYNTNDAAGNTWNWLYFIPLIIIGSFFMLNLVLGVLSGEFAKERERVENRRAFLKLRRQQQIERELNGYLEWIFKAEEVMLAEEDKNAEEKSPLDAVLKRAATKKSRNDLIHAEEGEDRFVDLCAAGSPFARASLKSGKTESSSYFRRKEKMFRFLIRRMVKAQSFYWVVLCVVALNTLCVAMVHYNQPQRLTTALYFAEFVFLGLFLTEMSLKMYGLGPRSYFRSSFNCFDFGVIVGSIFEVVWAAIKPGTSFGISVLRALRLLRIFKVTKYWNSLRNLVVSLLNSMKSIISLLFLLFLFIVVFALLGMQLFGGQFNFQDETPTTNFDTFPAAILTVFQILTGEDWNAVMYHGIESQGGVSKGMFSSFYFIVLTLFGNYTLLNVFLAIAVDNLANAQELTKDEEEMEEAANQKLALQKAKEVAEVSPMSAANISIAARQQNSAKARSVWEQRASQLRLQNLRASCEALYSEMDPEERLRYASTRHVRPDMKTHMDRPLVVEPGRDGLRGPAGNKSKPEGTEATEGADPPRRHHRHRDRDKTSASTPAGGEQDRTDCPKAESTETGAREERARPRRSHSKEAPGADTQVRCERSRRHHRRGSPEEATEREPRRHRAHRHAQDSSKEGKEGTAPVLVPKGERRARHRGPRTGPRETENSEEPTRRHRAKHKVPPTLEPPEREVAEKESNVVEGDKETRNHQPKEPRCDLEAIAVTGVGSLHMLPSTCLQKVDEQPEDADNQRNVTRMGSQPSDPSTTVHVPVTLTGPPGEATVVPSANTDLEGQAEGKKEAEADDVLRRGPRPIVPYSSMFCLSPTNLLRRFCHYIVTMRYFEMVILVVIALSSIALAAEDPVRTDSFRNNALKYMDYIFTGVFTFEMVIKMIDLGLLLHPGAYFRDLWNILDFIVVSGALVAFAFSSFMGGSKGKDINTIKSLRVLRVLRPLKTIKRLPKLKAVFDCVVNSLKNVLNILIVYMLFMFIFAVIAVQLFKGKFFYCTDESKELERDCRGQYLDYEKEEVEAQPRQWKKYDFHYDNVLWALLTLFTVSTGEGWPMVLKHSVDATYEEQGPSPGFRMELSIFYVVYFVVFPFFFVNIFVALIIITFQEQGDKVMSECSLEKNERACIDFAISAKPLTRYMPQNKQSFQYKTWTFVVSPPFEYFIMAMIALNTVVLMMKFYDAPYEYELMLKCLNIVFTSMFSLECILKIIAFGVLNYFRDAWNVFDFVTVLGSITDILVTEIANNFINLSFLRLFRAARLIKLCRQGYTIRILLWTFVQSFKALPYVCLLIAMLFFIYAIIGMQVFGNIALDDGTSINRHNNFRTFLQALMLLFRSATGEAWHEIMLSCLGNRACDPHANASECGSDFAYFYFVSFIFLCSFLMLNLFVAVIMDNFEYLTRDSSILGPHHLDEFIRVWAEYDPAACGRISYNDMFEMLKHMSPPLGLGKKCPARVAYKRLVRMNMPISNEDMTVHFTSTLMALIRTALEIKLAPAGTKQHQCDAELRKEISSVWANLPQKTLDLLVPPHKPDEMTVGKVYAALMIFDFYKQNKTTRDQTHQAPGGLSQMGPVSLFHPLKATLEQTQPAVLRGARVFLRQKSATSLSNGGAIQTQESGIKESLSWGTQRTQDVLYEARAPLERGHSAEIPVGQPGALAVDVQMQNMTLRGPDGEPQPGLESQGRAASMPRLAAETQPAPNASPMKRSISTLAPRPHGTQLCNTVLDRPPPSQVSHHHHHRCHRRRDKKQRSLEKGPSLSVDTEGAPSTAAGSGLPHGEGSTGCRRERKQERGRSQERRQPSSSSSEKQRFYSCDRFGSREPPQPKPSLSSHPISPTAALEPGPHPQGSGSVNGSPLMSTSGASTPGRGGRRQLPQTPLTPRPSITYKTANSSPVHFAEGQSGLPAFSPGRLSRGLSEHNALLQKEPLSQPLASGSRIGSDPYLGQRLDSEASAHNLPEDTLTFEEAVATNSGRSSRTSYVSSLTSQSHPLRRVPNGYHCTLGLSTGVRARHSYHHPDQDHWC
Sequence of calcium channel (type N) (P54287 whole entry partner): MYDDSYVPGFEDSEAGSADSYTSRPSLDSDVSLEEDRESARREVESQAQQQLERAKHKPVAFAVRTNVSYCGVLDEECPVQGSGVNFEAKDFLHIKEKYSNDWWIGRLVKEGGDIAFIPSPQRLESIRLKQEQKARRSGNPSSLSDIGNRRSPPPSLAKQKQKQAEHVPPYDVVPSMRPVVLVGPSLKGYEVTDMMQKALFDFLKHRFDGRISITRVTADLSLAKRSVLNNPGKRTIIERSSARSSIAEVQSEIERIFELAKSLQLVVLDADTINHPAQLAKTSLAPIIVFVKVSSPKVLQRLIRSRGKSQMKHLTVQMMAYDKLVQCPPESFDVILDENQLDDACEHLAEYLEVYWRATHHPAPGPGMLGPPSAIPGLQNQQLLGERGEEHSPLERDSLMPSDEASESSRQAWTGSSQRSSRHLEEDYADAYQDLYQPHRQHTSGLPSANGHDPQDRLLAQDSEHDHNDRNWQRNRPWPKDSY
Sequence of calcium channel (type N) (P54290 25-944 partner limits assumed): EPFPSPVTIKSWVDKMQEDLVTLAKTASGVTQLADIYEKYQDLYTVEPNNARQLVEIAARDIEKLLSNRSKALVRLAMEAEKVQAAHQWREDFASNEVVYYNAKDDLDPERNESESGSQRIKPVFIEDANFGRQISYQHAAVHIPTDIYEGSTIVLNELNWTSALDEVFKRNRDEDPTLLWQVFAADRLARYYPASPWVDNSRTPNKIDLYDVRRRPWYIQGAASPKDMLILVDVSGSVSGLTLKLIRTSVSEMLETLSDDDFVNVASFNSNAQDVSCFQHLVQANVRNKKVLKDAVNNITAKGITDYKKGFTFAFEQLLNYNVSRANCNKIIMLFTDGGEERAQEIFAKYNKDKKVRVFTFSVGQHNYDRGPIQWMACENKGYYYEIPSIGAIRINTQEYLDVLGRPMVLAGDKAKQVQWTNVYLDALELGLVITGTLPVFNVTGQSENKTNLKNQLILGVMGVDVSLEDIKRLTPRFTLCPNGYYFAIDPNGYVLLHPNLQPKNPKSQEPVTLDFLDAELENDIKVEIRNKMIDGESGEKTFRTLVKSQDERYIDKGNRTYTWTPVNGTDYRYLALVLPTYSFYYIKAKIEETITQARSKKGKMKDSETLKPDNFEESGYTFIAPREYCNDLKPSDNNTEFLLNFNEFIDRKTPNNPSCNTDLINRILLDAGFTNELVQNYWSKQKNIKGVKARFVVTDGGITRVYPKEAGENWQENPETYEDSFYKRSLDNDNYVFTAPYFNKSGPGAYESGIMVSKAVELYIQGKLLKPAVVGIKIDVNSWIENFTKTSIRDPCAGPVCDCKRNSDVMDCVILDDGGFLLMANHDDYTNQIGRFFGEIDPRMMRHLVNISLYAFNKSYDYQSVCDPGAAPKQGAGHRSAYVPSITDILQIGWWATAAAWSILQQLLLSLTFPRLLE
Sequence of calcium channel (type N) (P54290 945-1091 partner limits assumed): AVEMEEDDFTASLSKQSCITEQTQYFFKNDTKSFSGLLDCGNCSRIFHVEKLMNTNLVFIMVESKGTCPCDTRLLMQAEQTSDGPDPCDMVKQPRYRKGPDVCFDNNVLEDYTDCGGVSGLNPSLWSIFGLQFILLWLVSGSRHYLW
Sequence of opioid (μ) receptor (P35372 whole entry): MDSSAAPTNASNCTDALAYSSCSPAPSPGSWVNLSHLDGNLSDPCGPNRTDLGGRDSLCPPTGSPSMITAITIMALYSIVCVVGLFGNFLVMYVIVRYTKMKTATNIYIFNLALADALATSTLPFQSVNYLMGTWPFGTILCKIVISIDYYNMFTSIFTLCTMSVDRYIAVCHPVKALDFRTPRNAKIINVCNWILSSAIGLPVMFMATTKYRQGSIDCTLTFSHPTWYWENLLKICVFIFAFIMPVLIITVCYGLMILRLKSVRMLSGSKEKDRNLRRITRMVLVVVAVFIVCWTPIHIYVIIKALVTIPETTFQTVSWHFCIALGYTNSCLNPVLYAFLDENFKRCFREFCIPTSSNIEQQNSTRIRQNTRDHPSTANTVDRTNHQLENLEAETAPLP

CC(C)(C)[C@H](NC(=O)Nc1cccc(C(F)(F)F)c1)C(=O)N[C@@H]1CCN(Cc2ccccc2)C1 [Compound 3a, N-(1-Benzyl-pyrrolidin-3-(R)-yl)-3,3-dimethyl-2-(S)-[3-(3-trifluoromethyl-phenyl)-ureido]-butyramide]
IC50 (opioid (μ) receptor): > 1000 nM | IC50 (sodium channel (site 2)): < 1000 nM | IC50 (calcium channel (type N)): > 1000 nM | IC50 [1]: > 1000 nM

CC(C)(C)[C@H](NC(=O)Nc1cccc(C(F)(F)F)c1)C(=O)N[C@H]1CCN(Cc2ccccc2)C1 [Compound 3b, N-(1-Benzyl-pyrrolidin-3-(S)-yl)-3,3-dimethyl-2-(S)-[3-(3-trifluoromethyl-phenyl)-ureido]-butyramide]
IC50 (opioid (μ) receptor): < 1000 nM | IC50 (sodium channel (site 2)): < 100 nM | IC50 (calcium channel (type N)): > 1000 nM | IC50 [1]: > 1000 nM

CC(C)(C)[C@H](NC(=O)Nc1cc(F)ccc1F)C(=O)N[C@H]1CCN(Cc2ccccc2)C1 [Compound 3c, N-(1-Benzyl-pyrrolidin-3-(S)-yl)-2-(S)-[3-(2,5-difluoro-phenyl)-ureido]-3,3-dimethyl-butyramide]
IC50 (opioid (μ) receptor): > 1000 nM | IC50 (sodium channel (site 2)): < 1000 nM | IC50 (calcium channel (type N)): > 1000 nM | IC50 [1]: > 1000 nM

CC(C)(C)[C@H](NC(=O)Nc1cc(F)ccc1F)C(=O)N[C@@H]1CCN(Cc2ccccc2)C1 [Compound 3d, N-(1-Benzyl-pyrrolidin-3-(R)-yl)-2-(S)-[3-(2,5-difluoro-phenyl)-ureido]-3,3-dimethyl-butyramide]
IC50 (opioid (μ) receptor): > 1000 nM | IC50 (sodium channel (site 2)): < 1000 nM | IC50 (calcium channel (type N)): > 1000 nM | IC50 [1]: > 1000 nM

O=C(NC1CCN(Cc2ccccc2)CC1)[C@@H]1Cc2ccccc2CN1C(=O)Nc1cccc(C(F)(F)F)c1 [Compound 3e, 3,4-Dihydro-1H-isoquinoline-2,3-dicarboxylic acid 3-(S)-[(1-benzyl-piperidin-4-yl)-amide] 2-[(3-trifluoromethyl-phenyl)-amide]]
IC50 (opioid (μ) receptor): > 1000 nM | IC50 (sodium channel (site 2)): < 100 nM | IC50 (calcium channel (type N)): > 1000 nM | IC50 [1]: > 1000 nM

O=C(NC1CCN(Cc2ccccc2)CC1)[C@@H]1Cc2ccccc2CN1C(=O)Nc1ccc(OC(F)(F)F)cc1 [Compound 3f, 3,4Dihydro-1H-isoquinoline-2,3-dicarboxylic acid 3-(S)-[(1-benzyl-piperidin-4-yl)-amide] 2-[(4-trifluoromethoxy-phenyl)-amide]]
IC50 (opioid (μ) receptor): > 1000 nM | IC50 (sodium channel (site 2)): < 100 nM | IC50 (calcium channel (type N)): > 1000 nM | IC50 [1]: > 1000 nM

CN(C)CCN(Cc1ccccc1)C(=O)[C@@H]1Cc2ccccc2CN1C(=O)Nc1cccc(C(F)(F)F)c1 [Compound 3g, 3,4-Dihydro-1H-isoquinoline-2,3-dicarboxylic acid 3-(S)-[benzyl-(2-dimethylamino-ethyl)-amide] 2-[(3-trifluoromethyl-phenyl)-amide]]
IC50 (opioid (μ) receptor): > 1000 nM | IC50 (sodium channel (site 2)): < 100 nM | IC50 (calcium channel (type N)): > 1000 nM | IC50 [1]: > 1000 nM

CN(C)CCN(Cc1ccccc1)C(=O)[C@@H]1Cc2ccccc2CN1C(=O)Nc1ccc(OC(F)(F)F)cc1 [Compound 3h, 3,4-Dihydro-1H-isoquinoline-2,3-dicarboxylic acid 3-(S)-[benzyl-(2-dimethylamino-ethyl)-amide] 2-[(4-trifluoromethoxy-phenyl)-amide]]
IC50 (opioid (μ) receptor): > 1000 nM | IC50 (sodium channel (site 2)): < 100 nM | IC50 (calcium channel (type N)): > 1000 nM | IC50 [1]: > 1000 nM

CC(C)(C)C(NC(=O)Nc1cccc(C(F)(F)F)c1)C(=O)NC(CN)Cc1ccccc1 (centres unmarked) [Compound 4, N-(2-Amino-1-benzyl-ethyl)-3,3-dimethyl-2-[3-(3-trifluoromethyl-phenyl)ureido]-butyramide]
IC50 (opioid (μ) receptor): < 100 nM | IC50 (sodium channel (site 2)): < 100 nM | IC50 (calcium channel (type N)): > 1000 nM | IC50 [1]: > 1000 nM

CC(C)(C)[C@@H](CN[C@H](CN)Cc1ccccc1)NC(=O)Nc1cccc(C(F)(F)F)c1 [Compound 5, 1-{1-[(2-Amino-1-benzyl-ethylamino)-methyl]-2,2-dimethy-propyl}-3-(3-trifluoromethyl-phenyl)-urea]
IC50 (opioid (μ) receptor): > 1000 nM | IC50 (sodium channel (site 2)): < 100 nM | IC50 (calcium channel (type N)): > 1000 nM | IC50 [1]: > 1000 nM

CN(C(=O)C(NC(=O)Nc1cccc(C(F)(F)F)c1)C(C)(C)C)C1CCN(Cc2ccccc2)C1 (centres unmarked) [Compound 8, N-(1-Benzyl-pyrrolidin-3-yl)-3,3,N-trimethyl-2-[3-(3-trifluoromethyl-phenyl)-ureido]-butyramide]
IC50 (opioid (μ) receptor): > 1000 nM | IC50 (sodium channel (site 2)): < 100 nM | IC50 (calcium channel (type N)): > 1000 nM | IC50 [1]: > 1000 nM

CN(CC(NC(=O)Nc1cccc(C(F)(F)F)c1)C(C)(C)C)C1CCN(Cc2ccccc2)C1 (centres unmarked) [Compound 9, 1-(1-{[(1-Benzyl-pyrrolidin-3-yl)-methyl-amino]-methyl}-2,2-dimethyl-propyl)-3-(3-trifluoromethyl-phenyl)-urea]
IC50 (opioid (μ) receptor): > 1000 nM | IC50 (sodium channel (site 2)): < 100 nM | IC50 (calcium channel (type N)): > 1000 nM | IC50 [1]: > 1000 nM

CN(C(=O)C(NC(=O)Nc1ccc(OC(F)(F)F)cc1)C(C)(C)C)C1CCN(Cc2ccccc2)C1 (centres unmarked) [Compound 10, N-(1-Benzyl-pyrrolidin-3-yl)-3,3,N-trimethyl-2-[3-(4-trifluoromethoxy-phenyl)-ureido]-butyramide]
IC50 (opioid (μ) receptor): > 1000 nM | IC50 (sodium channel (site 2)): < 1000 nM | IC50 (calcium channel (type N)): > 1000 nM | IC50 [1]: > 1000 nM

CN(CC(NC(=O)Nc1ccc(OC(F)(F)F)cc1)C(C)(C)C)C1CCN(Cc2ccccc2)C1 (centres unmarked) [Compound 11, 1-(1-{[(1-Benzyl-pyrrolidin-3-yl)-methyl-amino]-methyl}-2,2-dimethyl-propyl)-3-(4-trifluoromethoxy-phenyl)-urea]
IC50 (opioid (μ) receptor): > 1000 nM | IC50 (sodium channel (site 2)): < 100 nM | IC50 (calcium channel (type N)): > 1000 nM | IC50 [1]: > 1000 nM

CC(C)(C)[C@H](NC(=O)Nc1cccc(C(F)(F)F)c1)C(=O)N[C@@H](Cc1ccccc1)C(=O)N1CCNCC1 [Compound 15, N-(1-Benzyl-2-oxo-2-piperazin-1-yl-ethyl)-3,3-dimethyl-2-[3-(3-trifluoromethyl-phenyl) -ureido]-butyramide]
IC50 (opioid (μ) receptor): > 1000 nM | IC50 (sodium channel (site 2)): > 1000 nM | IC50 (calcium channel (type N)): > 1000 nM

CN(C)CCN(Cc1ccccc1)C(=O)[C@@H](NC(=O)Nc1cccc(C(F)(F)F)c1)C(C)(C)C [Compound 16, N-Benzyl-N-(2-dimethylamino-ethyl)-3,3-dimethyl-2-[3-(3-trifluoromethyl-phenyl)-ureido]-butyramide]
IC50 (opioid (μ) receptor): > 1000 nM | IC50 (sodium channel (site 2)): < 1000 nM | IC50 (calcium channel (type N)): > 1000 nM

CN(C)CCN(Cc1ccccc1)C(=O)[C@@H](NC(=O)Nc1ccc(OC(F)(F)F)cc1)C(C)(C)C [Compound 17, N-Benzyl-N-(2-dimethylamino-ethyl)-3,3-dimethyl-2-[3-(4trifluoromethoxy-phenyl)-ureido]-butyramide]
IC50 (opioid (μ) receptor): > 1000 nM | IC50 (sodium channel (site 2)): < 100 nM | IC50 (calcium channel (type N)): > 1000 nM

CN(C)C[C@H](Cc1ccccc1)NC(=O)[C@@H](NC(=O)Nc1cccc(C(F)(F)F)c1)C(C)(C)C [Compound 18, N-(1-Benzyl-2-dimethylamino-ethyl)-3,3-dimethyl-2-[3-(3-trifluoromethyl-phenyl)-ureido]-butyramide]
IC50 (opioid (μ) receptor): < 100 nM | IC50 (sodium channel (site 2)): < 1000 nM | IC50 (calcium channel (type N)): > 1000 nM | IC50 [1]: > 1000 nM

CC(C)(C)[C@H](NC(=O)Nc1ccc(OC(F)(F)F)cc1)C(=O)N[C@H]1CCN(Cc2ccccc2)C1 [Compound 19, N-(1-Benzyl-pyrrolidin-3-yl)-3,3-dimethyl-2-[3-(4-trifluoromethoxy-phenyl)-ureido]-butyramide]
IC50 (opioid (μ) receptor): > 1000 nM | IC50 (sodium channel (site 2)): < 1000 nM | IC50 (calcium channel (type N)): > 1000 nM

CN(C)CCN(Cc1ccccc1)C(=O)[C@@H]1CCCN1C(=O)Nc1ccc(OC(F)(F)F)cc1 [Compound 22, Pyrrolidine-1,2-dicarboxylic acid 2-[benzyl-(2-dimethylamino-ethyl)-amide] 1-[(4-trifluoromethoxy-phenyl)-amide]]
IC50 (sodium channel (site 2)): < 1000 nM | IC50 (calcium channel (type N)): > 1000 nM

Reference: patent US7115664B2, “Peptidomimetic ligands for cellular receptors and ion channels” (Sepracor Inc., priority 2000, dated 2006)
